US10501805B2, “Methods for determining responsiveness to MEK/ERK inhibitors” (CROWN BIOSCIENCE, INC. (TAICANG), priority 2014, dated 2019)

Experiments:
Experiment in all cases: CellTiter-Glo cell viability, IC50 determination
Format in all cases: cell-based
A549 = conditions: Homo sapiens, 72 h; A549 cell line; 3-day CTG assay; read-out: Absolute IC50
Procedure: (§1) All the cells will be cultured in the media supplemented with 10% FBS except for which are marked specially, in the temperature of 37° C., 5% CO2 and 95% humidity.
(§2) Cell viability is assayed by using CellTiter-Glo® Luminescent Cell Viability Assay Kit (Cat. No.: G7572, Promega. Store at −20° C.). To prepare the CellTiter_Glo Reagent, the CellTiter-Glo Buffer was thawed and equilibrated to room temperature prior to use. For convenience the CellTiter-Glo Buffer may be thawed and stored at room temperature for up to 48 hours prior to use. The lyophilized CellTiter-Glo Substrate is equilibrated to room temperature prior to use. The appropriate volume (100 ml) of CellTiter-Glo Buffer is transferred into the amber bottle containing CellTiter-Glo Substrate to reconstitute the lyophilized enzyme/substrate mixture, which forms the CellTiter-Glo Reagent. In certain cases, the entire liquid volume of the CellTiter-Glo Buffer bottle may be added to the CellTiter-Glo Substrate vial. Mix by gently vortexing, swirling or by inverting the contents to obtain a homogeneous solution. The CellTiter-Glo Substrate should go into solution easily in less than one minute.
(§3) The day before the experiment (Day −1), cells were dissociated during the logarithmic growth period with Cell Disassociation Buffer (Gibco 13151-014) and mixed with appropriate cell media and centrifuge at 1000 rpm for 3 minutes. The cells were re-suspended and counted using Countstar before adjusting cell concentrations to optimized density (i.e. 4.44×10^4 cells/ml) with respective culture medium listed in Table 1 for 3-day CTG assay (The cell density was optimized before actual study; cell density used in the test may vary for different cell lines). 90 μl cell suspensions were added to two 96-well plates (plates A and B) with the final cell density of 4×10^3 cells/well for 3-day CTG assay (the cell density was optimized before actual study; cell density used in the test may vary for different cell lines). The plate A and B group were incubated for overnight in humidified incubator at 37° C. with 5% CO2.
(§4) On Day 0, for plate A group, 10 μl culture medium was added to each well for T0 reading. CellTiter-Glo® Reagent was added at equal volume of cell culture medium present in each well (e.g., add 100 μl of reagent to 100 μl of medium containing cells for a 96-well plate). Contents were mixed for 2 minutes on an orbital shaker to facilitate cell lysis. The plate was allowed to incubate at room temperature for 10 minutes to stabilize luminescent signal. Backseal black sticker was added to the bottom of each plate. Luminescence was recorded using EnVision Multi Label Reader. This formed the basis for T0 value.
(§5) On Day 0, the test articles and positive controls were dissolved at the concentration indicated at Test Article Dilution map. 100× solution in PBS was prepared and then diluted with appropriate culture media (1:10) into 10×working solutions. 10 μl (10×) drug solutions were dispensed in each well (triplicate for each drug concentration) of the plate B group according to plate inoculation map. The test plates were incubated for […] in the humidified incubator at 37° with 5% CO2.
(§6) On Day 3, CellTiter-Glo® Reagent was added at equal volume of cell culture medium present in each well (e.g., add 100 μl of reagent to 100 μl of medium containing cells for a 96-well plate). Contents were mixed for 2 minutes on an orbital shaker to induce cell lysis. The plate was allowed to incubate at room temperature for 10 minutes to stabilize luminescent signal. Backseal black sticker was placed to the bottom of each plate. Luminescence was recorded using EnVision Multi Label Reader.
(§7) In order to calculate IC50s, a dose-response curve was fitted using a nonlinear regression model with a sigmoidal dose response. The formula for calculating surviving rate was shown below; Absolute IC50 is calculated where Y axis set at 50% using GraphPad Prism 5.0. Software. […]

BxPc-3 = conditions: Homo sapiens, 72 h; BxPc-3 cell line; 3-day CTG assay; read-out: Absolute IC50
Procedure: as §1, §2, §3, §4, §5, §6, §7

DLD-1 = conditions: Homo sapiens, 72 h; DLD-1 cell line; 3-day CTG assay; read-out: Absolute IC50
Procedure: as §1, §2, §3, §4, §5, §6, §7

HM-7 = conditions: 72 h; HM-7 cell line; 3-day CTG assay; read-out: Absolute IC50
Procedure: as §1, §2, §3, §4, §5, §6, §7

Hep3B = conditions: Homo sapiens, 72 h; Hep3B cell line; 3-day CTG assay; read-out: Absolute IC50
Procedure: as §1, §2, §3, §4, §5, §6, §7

NCI-H1666 = conditions: Homo sapiens, 72 h; NCI-H1666 cell line; 3-day CTG assay; read-out: Absolute IC50
Procedure: as §1, §2, §3, §4, §5, §6, §7

NCI-H1792 = conditions: Homo sapiens, 72 h; NCI-H1792 cell line; 3-day CTG assay; read-out: Absolute IC50
Procedure: as §1, §2, §3, §4, §5, §6, §7

NCI-H2009 = conditions: Homo sapiens, 72 h; NCI-H2009 cell line; 3-day CTG assay; read-out: Absolute IC50
Procedure: as §1, §2, §3, §4, §5, §6, §7

NCI-H23 = conditions: Homo sapiens, 72 h; NCI-H23 cell line; 3-day CTG assay; read-out: Absolute IC50
Procedure: as §1, §2, §3, §4, §5, §6, §7

PANC-1 = conditions: Homo sapiens, 72 h; PANC-1 cell line; 3-day CTG assay; read-out: Absolute IC50
Procedure: as §1, §2, §3, §4, §5, §6, §7

PL45 = conditions: 72 h; PL45 cell line; 3-day CTG assay; read-out: Absolute IC50
Procedure: as §1, §2, §3, §4, §5, §6, §7

RKO = conditions: Homo sapiens, 72 h; RKO cell line; 3-day CTG assay; read-out: Absolute IC50
Procedure: as §1, §2, §3, §4, §5, §6, §7

Sk-Hep-1 = conditions: Homo sapiens, SK-HEP1, 72 h; Sk-Hep-1 cell line; 3-day CTG assay; read-out: Absolute IC50
Procedure: as §1, §2, §3, §4, §5, §6, §7

Sk-Mel-5 = conditions: Homo sapiens, 72 h; Sk-Mel-5 cell line; 3-day CTG assay; read-out: Absolute IC50
Procedure: as §1, §2, §3, §4, §5, §6, §7

SMILES: O=C(Nc1ccc2[nH]nc(-c3ccncc3)c2c1)[C@@H]1CCN(CC(=O)N2CCN(c3ccc(-c4ncccn4)cc3)CC2)C1 [SCH772984, (R)-1-(2-oxo-2-(4-(4-(pyrimidin-2-yl)phenyl)piperazin-1-yl)ethyl)-N-(3-(pyridin-4-yl)-1H-indazol-5-yl)pyrrolidine-3-carboxamide]
- IC50 (A549): 1.78 µM
- IC50 (BxPc-3): 0.32 µM
- IC50 (DLD-1): 52.8 µM
- IC50 (HM-7): 0.79 µM
- IC50 (Hep3B): 0.25 µM
- IC50 (NCI-H1666): 0.92 µM
- IC50 (NCI-H1792): 4.7 µM
- IC50 (NCI-H2009): 4.36 µM
- IC50 (NCI-H23): 3.69 µM
- IC50 (PANC-1): 64.3 µM
- IC50 (PL45): 0.66 µM
- IC50 (RKO): 17.5 µM
- IC50 (Sk-Hep-1): 5.29 µM
- IC50 (Sk-Mel-5): 0.2 µM

SMILES: CC(=O)Nc1cccc(-n2c(=O)n(C3CC3)c(=O)c3c(Nc4ccc(I)cc4F)n(C)c(=O)c(C)c32)c1 [Trametinib, N-(3-{3-Cyclopropyl-5-[(2-fluoro-4-iodophenyl)amino]-6,8-dimethyl-2,4,7-trioxo-3,4,6,7-tetrahydropyrido[4,3-d]pyrimidin-1(2H)-yl}phenyl)acetamide]
- IC50 (A549): 0.24 µM
- IC50 (BxPc-3): 0.03 µM
- IC50 (DLD-1): 6.52 µM
- IC50 (HM-7): 0.39 µM
- IC50 (Hep3B): 0.05 µM
- IC50 (NCI-H1666): 0.13 µM
- IC50 (NCI-H1792): 0.16 µM
- IC50 (NCI-H2009): 0.41 µM
- IC50 (NCI-H23): 0.3 µM
- IC50 (PANC-1): 330 µM
- IC50 (PL45): 0.12 µM
- IC50 (RKO): 6.7 µM
- IC50 (Sk-Hep-1): 29.1 µM
- IC50 (Sk-Mel-5): 0.01 µM
